Assay results taken from patent publication US12071434B2, “Heterocyclic compound” (Takeda Pharmaceutical Company Limited, priority 2018, dated 2024).

Target: T1, human orexin type 2 receptor (Homo sapiens, UniProt O43614)
T1 construct: expressed in transfected cells
T1 sequence (O43614 1-444): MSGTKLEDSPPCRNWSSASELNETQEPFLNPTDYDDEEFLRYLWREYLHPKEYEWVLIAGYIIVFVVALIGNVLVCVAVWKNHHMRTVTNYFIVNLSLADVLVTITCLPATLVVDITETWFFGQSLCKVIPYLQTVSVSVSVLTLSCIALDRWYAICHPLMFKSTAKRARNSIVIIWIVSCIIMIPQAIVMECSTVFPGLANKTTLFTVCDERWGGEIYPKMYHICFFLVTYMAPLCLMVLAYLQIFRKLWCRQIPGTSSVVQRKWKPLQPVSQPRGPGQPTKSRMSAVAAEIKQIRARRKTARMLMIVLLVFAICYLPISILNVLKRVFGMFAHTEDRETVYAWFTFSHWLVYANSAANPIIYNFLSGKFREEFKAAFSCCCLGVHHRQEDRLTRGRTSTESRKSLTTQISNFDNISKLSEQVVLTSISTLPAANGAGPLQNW
Assay: Measurement of orexin type 2 receptor agonist activity (calcium fluorescence, Fluo-4 AM, FDSS) in CHO cells forcibly expressing human OX2 receptor
Type: cell-based
Conditions: test compound 3 μM, DMSO = 0%, orexin A (human) 10 nM = 100%
Method in brief: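 CHO-dhfr cells stably expressing human OX2 receptor, loaded with Fluo-4 AM plus probenecid for 30 min at 37 °C, then 30 min at room temperature. Calcium fluorescence read for about 2 min 40 s after compound addition. Activity (%) scaled between DMSO (0%) and 10 nM human orexin A (100%).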

Row | Compound | 0X2R agonist activity (3 μM, %) [%]
1 | CC1OC[C@@H]2CC[C@H](NS(C)(=O)=O)[C@H](Cc3cccc(-c4cccc(F)c4)c3)N2C1=O (relative stereo) [Example 140, rel-N-{(6S,7S,9aS)-6-[(3′-fluoro[1,1′-biphenyl]-3-yl)methyl]-3-methyl-4-oxooctahydropyrido[2,1-c][1,4]oxazin-7-yl}methanesulfonamide] | 94
2 | CC(C)n1cnc2c(c1=O)[C@@H](Cc1cccc(-c3ccccc3F)c1F)[C@@H](NS(C)(=O)=O)CC2 (relative stereo) [Example 149, rel-N-[(5R,6S)-5-[(2,2′-difluoro[1,1′-biphenyl]-3-yl)methyl]-4-oxo-3-(propan-2-yl)-3,4,5,6,7,8-hexahydroquinazolin-6-yl]methanesulfonamide] | 105
3 | CC(C)n1cnc2c(c1=O)[C@@H](Cc1cccc(-c3cccc(F)c3F)c1F)[C@@H](NS(C)(=O)=O)CC2 (relative stereo) [Example 151, rel-N-{(5R,6S)-4-oxo-3-(propan-2-yl)-5-[(2,2′,3′-trifluoro[1,1′-biphenyl]-3-yl)methyl]-3,4,5,6,7,8-hexahydroquinazolin-6-yl}methanesulfonamide] | 107
4 | CC(C)n1cnc2c(c1=O)[C@@H](Cc1cccc(-c3cccc(C(F)F)c3F)c1F)[C@@H](NS(C)(=O)=O)CC2 (relative stereo) [Example 152, rel-N-[(5R,6S)-5-{[3′-(difluoromethyl)-2,2′-difluoro[1,1′-biphenyl]-3-yl]methyl}-4-oxo-3-(propan-2-yl)-3,4,5,6,7,8-hexahydroquinazolin-6-yl]methanesulfonamide] | 94
5 | CC(C)N1CNC2=C(C1=O)[C@@H](Cc1csc(-c3ccccc3F)n1)[C@@H](NS(=O)(=O)C1(F)CC1)CC2 (relative stereo) [Example 157, rac-1-fluoro-N-[(5R,6S)-5-{[2-(2-fluorophenyl)-1,3-thiazol-4-yl]methyl}-4-oxo-3-(propan-2-yl)-1,2,3,4,5,6,7,8-octahydroquinazolin-6-yl]cyclopropane-1-sulfonamide] | 99
6 | CC(C)c1nn(C)c2c(c1=O)[C@@H](Cc1cccc(-c3ccccc3)c1)[C@@H](NS(C)(=O)=O)CC2 (relative stereo) [Example 161, rel-N-[(5R,6S)-5-[([1,1′-biphenyl]-3-yl)methyl]-1-methyl-4-oxo-3-(propan-2-yl)-1,4,5,6,7,8-hexahydrocinnolin-6-yl]methanesulfonamide] | 101
7 | CC(C)n1cnc2c(c1=O)[C@@H](Cc1cccc(-c3cc(F)cc(F)c3)c1)[C@@H](NS(=O)(=O)C1(F)CC1)CC2 (relative stereo) [Example 187, rel-N-[(5R,6S)-5-[(3′,5′-difluoro[1,1′-biphenyl]-3-yl)methyl]-4-oxo-3-(propan-2-yl)-3,4,5,6,7,8-hexahydroquinazolin-6-yl]-1-fluorocyclopropane-1-sulfonamide] | 94
8 | Cc1ccc2n(c1=O)C(Cc1cccc(-c3cccc(F)c3)c1)C(NC(=O)[C@@H]1CCCO1)CC2 (stereo in doubt) [Example 44, (2S)-N-{(3S*,4S*)-4-[(3′-fluoro[1,1′-biphenyl]-3-yl)methyl]-7-methyl-6-oxo-1,3,4,6-tetrahydro-2H-quinolizin-3-yl}oxolane-2-carboxamide] | 96
9 | Cc1ccc2n(c1=O)C(Cc1cccc(-c3cccc(F)c3)c1F)C(NC(=O)[C@@H]1CCCO1)CC2 (stereo in doubt) [Example 54, (2S)-N-{(3S*,4S*)-4-[(2,3′-difluoro[1,1′-biphenyl]-3-yl)methyl]-7-methyl-6-oxo-1,3,4,6-tetrahydro-2H-quinolizin-3-yl}oxolane-2-carboxamide] | 97

Other lines, results leading:

Row | 0X2R agonist activity (3 μM, %) [%] | Compound
10 | 95 | CC(C)n1cnc2c(c1=O)[C@@H](Cc1cccc(-c3ccccc3)c1)[C@@H](NS(C)(=O)=O)CC2 (relative stereo) [Example 99, rel-N-[(5R,6S)-5-[([1,1′-biphenyl]-3-yl)methyl]-4-oxo-3-(propan-2-yl)-3,4,5,6,7,8-hexahydroquinazolin-6-yl]methanesulfonamide]
11 | 103 | CC(C)n1cnc2c(c1=O)[C@@H](Cc1cc(F)cc(-c3ccccc3)c1)[C@@H](NS(C)(=O)=O)CC2 (relative stereo) [Example 141, rel-N-[(5R,6S)-5-[(5-fluoro[1,1′-biphenyl]-3-yl)methyl]-4-oxo-3-(propan-2-yl)-3,4,5,6,7,8-hexahydroquinazolin-6-yl]methanesulfonamide]
12 | 92 | CC(C)n1cnc2c(c1=O)[C@@H](Cc1cccc(-c3ccccc3)c1)[C@@H](NS(=O)(=O)CF)CC2 (relative stereo) [Example 145, rel-N-[(5R,6S)-5-[([1,1′-biphenyl]-3-yl)methyl]-4-oxo-3-(propan-2-yl)-3,4,5,6,7,8-hexahydroquinazolin-6-yl]-1-fluoromethanesulfonamide]
13 | 98 | CC(C)n1cnc2c(c1=O)[C@@H](Cc1ccc(F)c(-c3ccccc3)c1)[C@@H](NS(C)(=O)=O)CC2 (relative stereo) [Example 150, rel-N-[(5R,6S)-5-[(6-fluoro[1,1′-biphenyl]-3-yl)methyl]-4-oxo-3-(propan-2-yl)-3,4,5,6,7,8-hexahydroquinazolin-6-yl]methanesulfonamide]
14 | 100 | CC(C)n1cnc2c(c1=O)[C@@H](Cc1csc(-c3cccc(F)c3F)n1)[C@@H](NS(C)(=O)=O)CC2 (relative stereo) [Example 154, rel-N-[(5R,6S)-5-{[2-(2,3-difluorophenyl)-1,3-thiazol-4-yl]methyl}-4-oxo-3-(propan-2-yl)-3,4,5,6,7,8-hexahydroquinazolin-6-yl]methanesulfonamide]
15 | 104 | CC(C)n1cnc2c(c1=O)[C@@H](Cc1csc(-c3ccccc3F)n1)[C@@H](NS(C)(=O)=O)CC2 (relative stereo) [Example 155, rel-N-[(5R,6S)-5-{[2-(2-fluorophenyl)-1,3-thiazol-4-yl]methyl}-4-oxo-3-(propan-2-yl)-3,4,5,6,7,8-hexahydroquinazolin-6-yl]methanesulfonamide]
16 | 93 | CC(C)n1cnc2c(c1=O)[C@@H](Cc1csc(-c3ccccc3F)n1)[C@@H](NS(=O)(=O)C1(F)CC1)CC2 (relative stereo) [Example 156, rel-1-fluoro-N-[(5R,6S)-5-{[2-(2-fluorophenyl)-1,3-thiazol-4-yl]methyl}-4-oxo-3-(propan-2-yl)-3,4,5,6,7,8-hexahydroquinazolin-6-yl]cyclopropane-1-sulfonamide]
17 | 91 | CC(C)n1cnc2c(c1=O)[C@@H](Cc1csc(-c3ccccc3)n1)[C@@H](NS(=O)(=O)C1CC1)CC2 (relative stereo) [Example 169, rel-N-[(5R,6S)-4-oxo-5-[(2-phenyl-1,3-thiazol-4-yl)methyl]-3-(propan-2-yl)-3,4,5,6,7,8-hexahydroquinazolin-6-yl]cyclopropanesulfonamide]
18 | 96 | CC(C)n1cnc2c(c1=O)[C@@H](Cc1cccc(-c3ccccc3)c1F)[C@@H](NS(=O)(=O)C1CC1)[C@H](F)C2 (relative stereo) [Example 206, rel-N-[(5R,6R,7R)-7-fluoro-5-[(2-fluoro[1,1′-biphenyl]-3-yl)methyl]-4-oxo-3-(propan-2-yl)-3,4,5,6,7,8-hexahydroquinazolin-6-yl]cyclopropanesulfonamide]
